Measured values as given in PMC11998009, “Identification of a New FtsZ Inhibitor by Virtual Screening, Mechanistic Insights, and Structure–Activity Relationship Analyses” (ACS Infectious Diseases, 2025).
Converted amounts (≈) assume the structure as drawn. Read-outs that look alike come from different tables or passages of the source.

Experiments:
S. aureus TD276 = experiment: MIC against the FtsZ-mCherry strain; type: cell-based; settings: Staphylococcus aureus
[1] = system: S. aureus cystic fibrosis clinical isolates; experiment: MIC for CF clinical isolates; type: cell-based
FtsZPa [2] = molecular target: T1, FtsZPa (Pseudomonas aeruginosa, UniProt P47204); experiment: FtsZPa polymerization assay
T1 sequence (P47204 1-394): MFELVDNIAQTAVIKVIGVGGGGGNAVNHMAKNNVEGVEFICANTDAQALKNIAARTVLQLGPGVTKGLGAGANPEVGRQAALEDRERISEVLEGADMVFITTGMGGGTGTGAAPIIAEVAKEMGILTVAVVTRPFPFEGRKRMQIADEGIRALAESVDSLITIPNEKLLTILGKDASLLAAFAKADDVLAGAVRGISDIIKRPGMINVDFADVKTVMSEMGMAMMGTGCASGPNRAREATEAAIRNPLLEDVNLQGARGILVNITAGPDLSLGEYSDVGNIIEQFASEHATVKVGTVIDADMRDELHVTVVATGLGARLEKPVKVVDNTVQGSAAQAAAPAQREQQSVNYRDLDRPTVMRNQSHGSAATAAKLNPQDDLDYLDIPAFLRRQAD

[3] = MTT cell viability assay on A549; settings: human, A549 cells
[4] = system: A549 pulmonary epithelial cells; experiment: MTT cell viability assay on A549; settings: A549, 25 μM, 24 h
FtsZSa = molecular target: T2, FtsZSa (Staphylococcus aureus, UniProt P0A031); experiment: FtsZSa polymerization, sedimentation assay; settings: sedimentation assay, 100 μM
T2 sequence (P0A031 1-390): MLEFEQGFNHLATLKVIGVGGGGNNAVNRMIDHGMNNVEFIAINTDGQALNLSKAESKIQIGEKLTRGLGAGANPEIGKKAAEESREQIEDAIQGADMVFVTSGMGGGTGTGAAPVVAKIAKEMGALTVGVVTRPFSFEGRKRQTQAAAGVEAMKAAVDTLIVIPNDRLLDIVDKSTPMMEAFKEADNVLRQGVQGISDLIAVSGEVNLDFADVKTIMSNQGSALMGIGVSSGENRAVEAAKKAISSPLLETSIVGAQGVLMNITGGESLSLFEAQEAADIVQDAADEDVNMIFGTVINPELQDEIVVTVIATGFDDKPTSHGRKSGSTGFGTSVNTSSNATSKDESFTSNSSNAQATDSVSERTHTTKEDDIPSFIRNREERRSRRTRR

FtsZPa [5] = molecular target: T1, FtsZPa; experiment: FtsZPa GTPase activity; type: biochemical; parameters: made in house; host or cells: Escherichia coli BL21DE3

**Q.** Which results are given for COc1ccc(Cc2nnc(SC3=CS(=O)(=O)c4ccccc43)o2)cc1 [C11]?
**A.** MIC (S. aureus TD276): 2 µg/mL (≈ 5.18 µM); MIC ([1]; S. aureus BG8 MRSA, single drug): 2 µg/mL (≈ 5.18 µM); MIC ([1]; S. aureus BG9 MRSA, single drug): 2 µg/mL (≈ 5.18 µM); MIC ([1]; S. aureus BG10 MRSA, single drug): 2 µg/mL (≈ 5.18 µM); MIC ([1]; Staphylococcus aureus, MRSA, S. aureus BG6 MRSA, read-out: MIC): 2 µg/mL (≈ 5.18 µM); MIC ([1]; Staphylococcus aureus, MRSA, S. aureus BG7 MRSA smv, read-out: MIC): 4 µg/mL (≈ 10.4 µM); MIC ([1]; Staphylococcus aureus, MRSA, S. aureus BG8 MRSA, single drug, read-out: MIC): 2 µg/mL (≈ 5.18 µM); MIC ([1]; Staphylococcus aureus, MRSA, S. aureus BG9 MRSA, single drug, read-out: MIC): 2 µg/mL (≈ 5.18 µM); MIC ([1]; Staphylococcus aureus, MRSA, S. aureus BG10 MRSA, single drug, read-out: MIC): 2 µg/mL (≈ 5.18 µM); MIC ([1]; Staphylococcus aureus, S. aureus BG1, read-out: MIC): 2 µg/mL (≈ 5.18 µM); MIC ([1]; Staphylococcus aureus, S. aureus BG2, read-out: MIC): 4 µg/mL (≈ 10.4 µM); MIC ([1]; Staphylococcus aureus, S. aureus BG3, read-out: MIC): 4 µg/mL (≈ 10.4 µM); MIC ([1]; Staphylococcus aureus, S. aureus BG4, read-out: MIC): 8 µg/mL (≈ 20.7 µM); MIC ([1]; Staphylococcus aureus, S. aureus BG5, read-out: MIC): 8 µg/mL (≈ 20.7 µM); MIC ([1]; Staphylococcus aureus, S. aureus SA1, read-out: MIC): 4 µg/mL (≈ 10.4 µM); MIC ([1]; Staphylococcus aureus, S. aureus SA2, read-out: MIC): 4 µg/mL (≈ 10.4 µM); MIC ([1]; Staphylococcus aureus, S. aureus SA3, read-out: MIC): 2 µg/mL (≈ 5.18 µM); MIC ([1]; Staphylococcus aureus, S. aureus SA4, read-out: MIC): 2 µg/mL (≈ 5.18 µM); MIC ([1]; Staphylococcus aureus, S. aureus SA5, read-out: MIC): 4 µg/mL (≈ 10.4 µM); MIC ([1]; Staphylococcus aureus, S. aureus SA6, read-out: MIC): 2 µg/mL (≈ 5.18 µM); MIC ([1]; Staphylococcus aureus, S. aureus SA7, read-out: MIC): 2 µg/mL (≈ 5.18 µM); MIC ([1]; Staphylococcus aureus, S. aureus SA8, read-out: MIC): 2 µg/mL (≈ 5.18 µM); MIC ([1]; Staphylococcus aureus, S. aureus SA9, read-out: MIC): 4 µg/mL (≈ 10.4 µM); MIC ([1]; Staphylococcus aureus, S. aureus SA10, read-out: MIC): 2 µg/mL (≈ 5.18 µM); MIC ([1]; Staphylococcus aureus, S. aureus SA11, read-out: MIC): 4 µg/mL (≈ 10.4 µM); MIC ([1]; Staphylococcus aureus, S. aureus SA12, read-out: MIC): 4 µg/mL (≈ 10.4 µM); MIC ([1]; Staphylococcus aureus, S. aureus SA13, read-out: MIC): 4 µg/mL (≈ 10.4 µM); MIC ([1]; Staphylococcus aureus, S. aureus SA14, read-out: MIC): 2 µg/mL (≈ 5.18 µM); MIC ([1]; Staphylococcus aureus, S. aureus SA15, read-out: MIC): 4 µg/mL (≈ 10.4 µM); MIC ([1]; Staphylococcus aureus, S. aureus SA16, read-out: MIC): 4 µg/mL (≈ 10.4 µM); MIC ([1]; Staphylococcus aureus, S. aureus SA17, read-out: MIC): 2 µg/mL (≈ 5.18 µM); MIC ([1]; Staphylococcus aureus, S. aureus SA18, read-out: MIC): 4 µg/mL (≈ 10.4 µM); MIC ([1]; Staphylococcus aureus, S. aureus SA19, read-out: MIC): 2 µg/mL (≈ 5.18 µM); MIC ([1]; Staphylococcus aureus, S. aureus SA20, read-out: MIC): 4 µg/mL (≈ 10.4 µM); MIC ([1]; Staphylococcus aureus, S. aureus SA21, read-out: MIC): 2 µg/mL (≈ 5.18 µM); MIC ([1]; Staphylococcus aureus, S. aureus SA22, read-out: MIC): 2 µg/mL (≈ 5.18 µM); MIC ([1]; Staphylococcus aureus, S. aureus SA23, read-out: MIC): 4 µg/mL (≈ 10.4 µM); MIC ([1]; Staphylococcus aureus, S. aureus SA24, read-out: MIC): 2 µg/mL (≈ 5.18 µM); MIC ([1]; Staphylococcus aureus, S. aureus SA25, read-out: MIC): 2 µg/mL (≈ 5.18 µM); MIC ([1]; Staphylococcus aureus, panel of clinical isolates from cystic fibrosis patients, read-out: MIC values for the vast majority of the clinical isolates): 2 to 4 µg/mL (≈ 5.18 to 10.4 µM); IC50 (FtsZPa [2]): 34 µM; viability at 6 h, 25 µM [3]: > 90%; Percentage of live cells (MTT) [4]: higher than 70%; Effect on FtsZSa polymers formation (FtsZSa): inhibitory effect on FtsZSa polymerization; Effect on FtsZPa GTPase activity (FtsZPa [5]): did not interfere with the GTPase activity
